The values below come from EP1976513B1 (priority 2006, dated 2007).

Each structure is given as a SMILES string. Where a name gives a salt, the structure may show the parent alone. Read-outs that look alike come from different tables or passages of the source.

In assay [1] the target is human serotonin reuptake transporter (Homo sapiens, UniProt P31645). The assay is described as follows: cell-based.
The target in assay [2] is T1, human dopamine reuptake transporter (Homo sapiens, UniProt Q01959).
T1 construct: expressed in transfected cells; host or cells: CHO-K1 or HEK293
Kind of assay: cell-based.

Where [3] appears, read: Human IC50 (nM) hSERT, recombinant human serotonin transporter (SERT).
Where [4] appears, read: recombinant human dopamine transporter (DAT), read-out: Human IC50 (nM) hDAT.
[5] abbreviates: recombinant human serotonin transporter (SERT), read-out: Human IC50 (nM) hSERT.
Where [6] appears, read: read-out: Human IC50 (nM) hSERT.

Sequence of human serotonin reuptake transporter (P31645 whole entry): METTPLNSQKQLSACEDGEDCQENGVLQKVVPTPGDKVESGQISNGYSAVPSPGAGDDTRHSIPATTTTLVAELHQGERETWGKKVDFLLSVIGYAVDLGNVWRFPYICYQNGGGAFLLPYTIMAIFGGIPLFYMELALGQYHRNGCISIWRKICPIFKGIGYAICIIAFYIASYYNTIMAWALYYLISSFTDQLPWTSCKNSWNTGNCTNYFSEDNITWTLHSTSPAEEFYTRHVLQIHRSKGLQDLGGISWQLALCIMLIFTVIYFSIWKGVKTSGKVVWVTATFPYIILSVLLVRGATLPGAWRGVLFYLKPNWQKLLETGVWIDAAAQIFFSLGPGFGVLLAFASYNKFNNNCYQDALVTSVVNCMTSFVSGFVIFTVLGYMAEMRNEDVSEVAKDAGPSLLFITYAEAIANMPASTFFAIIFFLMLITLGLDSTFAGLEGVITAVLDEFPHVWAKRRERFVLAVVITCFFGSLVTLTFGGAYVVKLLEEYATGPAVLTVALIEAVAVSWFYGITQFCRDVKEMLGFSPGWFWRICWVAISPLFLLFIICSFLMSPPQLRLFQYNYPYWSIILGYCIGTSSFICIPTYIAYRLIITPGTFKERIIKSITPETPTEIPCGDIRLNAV
T1 sequence (Q01959 whole entry): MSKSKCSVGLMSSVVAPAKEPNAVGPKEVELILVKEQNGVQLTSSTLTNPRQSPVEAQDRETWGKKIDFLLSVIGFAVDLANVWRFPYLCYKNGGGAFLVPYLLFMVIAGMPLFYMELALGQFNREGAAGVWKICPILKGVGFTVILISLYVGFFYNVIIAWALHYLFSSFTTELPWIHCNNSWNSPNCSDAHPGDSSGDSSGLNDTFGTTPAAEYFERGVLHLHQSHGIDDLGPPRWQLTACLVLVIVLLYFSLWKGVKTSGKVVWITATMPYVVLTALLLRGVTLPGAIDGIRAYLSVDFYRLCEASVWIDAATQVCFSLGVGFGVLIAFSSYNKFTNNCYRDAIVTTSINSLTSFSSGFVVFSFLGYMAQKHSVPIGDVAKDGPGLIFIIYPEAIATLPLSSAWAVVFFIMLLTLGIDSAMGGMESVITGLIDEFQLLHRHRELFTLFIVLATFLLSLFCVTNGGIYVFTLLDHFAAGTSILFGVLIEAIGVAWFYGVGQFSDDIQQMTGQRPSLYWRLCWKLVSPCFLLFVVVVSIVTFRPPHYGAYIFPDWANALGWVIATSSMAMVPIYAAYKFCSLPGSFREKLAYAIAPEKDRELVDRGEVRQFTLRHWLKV

Consider `CNCC1(c2ccc(Cl)c(Cl)c2)CC=CC1` [Compound 168, 1-(1-(3,4-dichlorophenyl)cyclopent-3-enyl)-N-methylmethanamine], for which the results for the IC50 in assay [1] (setting [3]) and in assay [2] (setting [4]) were 1470 nM and 108 nM, respectively.
Turning to `CC1CCCN(CC2(c3ccc(Cl)c(Cl)c3)CCCCC2)C1` (racemic) [Compound 114, 1-((1-(3,4-dichlorophenyl)cyclohexyl)methyl)-3-methylpiperidine], the IC50 (in general, the concentration needed to halve the response being measured) in assay [1] (Human IC50 (nM) hSERT) was above 10000 nM; in assay [2] (setting [4]), 16 nM.
As for `CC(N)C1(c2ccc(-c3ccoc3)cc2)CCCCC1` (single isomer, unassigned) [20 E1, 1-(1-(4-(furan-3-yl)phenyl)cyclohexyl)ethanamine], the results for the 50% inhibitory concentration (IC50) in assay [1] (setting [5]) and in assay [2] (setting [4]) were 40 nM and 369 nM, respectively.
For `NCC1(c2ccc(-c3cc(F)cc(F)c3)cc2)CCCCC1` [Compound 23, (1-(3',5'-difluorobiphenyl-4-yl)cyclohexyl)methanamine], in that order: 62 nM and 682 nM.
For `NCC1(c2ccc3c(c2)OCO3)CCC(O)CC1` (centres unmarked) [Compound 214, 4-(aminomethyl)-4-(benzo[d][1,3]dioxol-5-yl)cyclohexanol], in that order: above 10000 nM and above 10000 nM.
For `CC(N(C)C)C1(c2ccc(OC(F)(F)F)cc2)CCCCC1` (single isomer, unassigned) [63 E2, N,N-dimethyl-1-(1-(4-(trifluoromethoxy)phenyl)cyclohexyl)ethanamine], in that order: 2 nM and 1820 nM.
`CC(N(C)C)C1(c2cccc3ccccc23)CCCCC1` (single isomer, unassigned) [60 E2, N,N-dimethyl-1-(1-(naphthalen-1-yl)cyclohexyl)ethanamine]: the IC50 in assay [1] (setting [5]) stood at 4630 nM; in assay [2] (setting [4]) it was 6740 nM.
Turning to `CNCC1(c2ccc(Cl)c(F)c2)CCCCC1` [Compound 95, (1-(4-chloro-3-fluorophenyl)cyclohexyl)-N-methylmethanamine], the values for the IC50 in assay [1] (setting [3]) and in assay [2] (setting [4]) were 480 nM and 324 nM, respectively.
As to `CN(C)CC1(c2ccc(Cl)c(Cl)c2)CCC(Oc2ccccc2)CC1` (centres unmarked) [Compound 266, 1-(1-(3,4-dichlorophenyl)-4-phenoxycyclohexyl)-N,N-dimethylmethanamine], the results for the IC50 in assay [1] (setting [6]) and in assay [2] (read-out: Human IC50 (nM) hDAT) were 168 nM and 859 nM, respectively.
For `CNCC1(c2ccc3c(c2)OCO3)CCC(C)(O)CC1` (centres unmarked) [Compound 241, 4-(benzo[d][1,3]dioxol-5-yl)-1-methyl-4-((methylamino)methyl)cyclohexanol], the IC50 in assay [1] (setting [5]) and in assay [2] (setting [4]) was above 10000 nM in each case.
Regarding `CN(C)CC1(c2ccc3ccccc3c2)CCC(C)(O)CC1` (centres unmarked) [Compound 224, 4-((dimethylamino)methyl)-1-methyl-4-(naphthalen-2-yl)cyclohexanol], the IC50 in assay [1] (setting [5]) came out at 69 nM; in assay [2] (setting [4]), 993 nM.
As to `CCC(N(C)C)C1(c2ccc(Cl)c(Cl)c2)CCCCC1` (single isomer, unassigned) [61 E1, 1-(1-(3,4-dichlorophenyl)cyclohexyl)-N,N-dimethylpropan-1-amine], the half-inhibitory concentration (IC50) in assay [1] (setting [3]) worked out at 5950 nM; in assay [2] (setting [4]), 959 nM.
As to `CCCC1(O)CCC(CN(C)C)(c2ccc(Cl)c(Cl)c2)CC1` (centres unmarked) [Compound 286, 4-(3,4-dichlorophenyl)-4-((dimethylamino)methyl)-1-propylcyclohexanol], the results for the 50% inhibitory concentration (IC50) in assay [1] (setting [6]) and in assay [2] (setting [4]) were 46 nM and 198 nM, respectively.
For the molecule `CCCC1(O)CCC(CNC)(c2ccc(Cl)c(Cl)c2)CC1` (centres unmarked) [Compound 285, 4-(3,4-dichlorophenyl)-4-((methylamino)methyl)-1-propylcyclohexanol], the IC50 was 1140 nM in assay [1] (setting [5]) and 1900 nM in assay [2] (setting [4]).
Regarding `NCC1(c2ccc(Cl)c(Cl)c2)CCC(O)C1` (stereo not drawn) [cis 167, 3-(aminomethyl)-3-(3,4-dichlorophenyl)cyclopentanol], the results for the half-inhibitory concentration (IC50) in assay [1] (setting [3]) and in assay [2] (setting [4]) were above 10000 nM and 2220 nM, respectively.
As for `CNCC1(c2ccc3ccccc3c2)CCC(F)(F)CC1` [Compound 251, 1-(4,4-difluoro-1-(naphthalen-2-yl)cyclohexyl)-N-methylmethanamine], the IC50 in assay [1] (setting [5]) amounted to 199 nM; in assay [2] (setting [4]), 107 nM.
The matching figures for `CNCC1(c2ccc(Cl)c(Cl)c2)CCC2(CC1)OCCO2` [Compound 270, 1-(8-(3,4-dichlorophenyl)-1,4-dioxaspiro[4.5]decan-8-yl)-N-methylmethanamine]: 469 nM and 376 nM.
The matching figures for `CN(C)CC1(c2ccc(Cl)c(Cl)c2)CCC(C)(O)CC1` (centres unmarked) [Compound 274, 4-(3,4-dichlorophenyl)-4-((dimethylamino)methyl)-1-methylcyclohexanol]: 809 nM and 251 nM.
Consider `CSc1ccc(C2(CN)CCCCC2)cc1` [Compound 10, (1-(4-(methylthio)phenyl)cyclohexyl)methanamine], for which the 50% inhibitory concentration (IC50) in assay [1] (setting [3]) came to 1910 nM; in assay [2] (setting [4]), 2930 nM.
With `NCC1(c2cccc(Cl)c2)CCCCC1` [Compound 28, (1-(3-chlorophenyl)cyclohexyl)methanamine hydrochloride], the values for the IC50 in assay [1] (setting [5]) and in assay [2] (setting [4]) were 4560 nM and 707 nM, respectively.
The matching figures for `CN(C)CC1(c2ccc(Cl)c(Cl)c2)CCC(O)CC1` (centres unmarked) [Compound 263, 4-(3,4-dichlorophenyl)-4-((dimethylamino)methyl)cyclohexanol]: 674 nM and 498 nM.
`CNC(C)C1(c2ccc(OC(F)(F)F)cc2)CCCCC1` (single isomer, unassigned) [64 E2, N-methyl-1-(1-(4-(trifluoromethoxy)phenyl)cyclohexyl)ethanamine]: the values for the IC50 in assay [1] (setting [5]) and in assay [2] (Human IC50 (nM) hDAT) were 32 nM and 3640 nM, respectively.
`CNCC1(c2ccc3ccccc3c2)CCC(O)(CF)CC1` (centres unmarked) [Compound 243, 1-(fluoromethyl)-4-((methylamino)methyl)-4-(naphthalen-2-yl)cyclohexanol]: the results for the IC50 in assay [1] (setting [5]) and in assay [2] (setting [4]) were 26 nM and 851 nM, respectively.
The matching figures for `CNC(=O)[C@]1(c2ccc3ccccc3c2)CCCC[C@H]1O` (relative stereo) [Compound 301, trans-2-hydroxy-N-methyl-1-(naphthalen-2-yl)cyclohexanecarboxamide]: above 10000 nM and 8780 nM.
On to `CN(C)CC1(c2ccc3c(c2)OCO3)CCCCC1` [Compound 102, 1-(1-(benzo[d][1,3]dioxol-5-yl)cyclohexyl)-N,N-dimethylmethanamine], for which the IC50 is 195 nM in assay [1] (setting [3]) and 420 nM in assay [2] (setting [4]).
The matching figures for `CNCC1(c2ccc(C(F)(F)F)cc2)CCCCC1` [Compound 100, N-methyl-1-(1-(4-(trifluoromethyl)phenyl)-cyclohexyl)methanamine]: 1500 nM and 3410 nM.
On to `NCC1(c2ccc(Cl)c(Cl)c2)CCC(O)CC1` (centres unmarked) [Compound 262, 4-(aminomethyl)-4-(3,4-dichlorophenyl)cyclohexanol], for which the IC50 is above 10000 nM in assay [1] (setting [6]) and 4280 nM in assay [2] (setting [4]).
As to `CN(C)CC1(c2ccc(Cl)c(Cl)c2)CCCC(F)(F)C1` (single isomer, unassigned) [206 E1, 1-(1-(3,4-dichlorophenyl)-3,3-difluorocyclohexyl)-N,N-dimethylmethanamine], the IC50 in assay [2] (setting [4]) amounted to 59 nM.
The same measure, in the same setting: to `CNCC1(c2ccc(OC(F)(F)F)cc2)CCCCC1O` (single isomer, unassigned) [146 E2, trans-2-((Methylamino)methyl)-2-(4-(trifluoromethoxy)phenyl) cyclohexanol] belongs above 10000 nM.
Still for that read-out and setting: to `COc1ccc(C2(CN(C)C)CCCCC2O)cc1` (single isomer, unassigned) [155 E1, Cis-2-((dimethylamino)methyl)-2-(4-methoxyphenyl)cyclohexanol] belongs above 10000 nM; to `COc1ccc(C2(CN(C)C)CCCCC2O)cc1` (single isomer, unassigned) [155 E2, Cis-2-((dimethylamino)methyl)-2-(4-methoxyphenyl)cyclohexanol], above 10000 nM; to `NCC1(c2ccc(Cl)c(Cl)c2)CCC(F)CC1` (centres unmarked) [Compound 260, (1-(3,4-dichlorophenyl)-4-fluorocyclohexyl)methanamine], 306 nM.
On to `CN(C)C[C@]1(c2ccc(Cl)c(Cl)c2)CCC[C@H](O)C1` (relative stereo) [Compound 203, cis-3-(3,4-dichlorophenyl)-3-((dimethylamino)methyl)cyclohexanol], for which the IC50 in assay [2] (setting [4]) was determined as 1.4 nM.
In assay [2] (Human IC50 (nM) hDAT), `NCC1(c2ccc(Cl)c(Cl)c2)CC=CCC1` (centres unmarked) [Compound 71] had an IC50 of 123 nM.
In the case of `CNC(C)C1(c2cccc3ccccc23)CCCCC1` (single isomer, unassigned) [59 E2, N-methyl-1-(1-(naphthalen-1-yl)cyclohexyl)ethanamine], the IC50 in assay [2] (setting [4]) worked out at 3870 nM.
Same read-out and setting: to `CNCC1(c2ccc3ccccc3c2)CCC(F)CC1` (centres unmarked) [Compound 236, 1-(4-fluoro-1-(naphthalen-2-yl)cyclohexyl)-N-methylmethanamine] belongs 444 nM.
Take `CNCC1(c2ccc3ccccc3c2)CCC(O)CC1` (centres unmarked) [Compound 227, 4-((methylamino)methyl)-4-(naphthalen-2-yl)cyclohexanol]: in assay [2] (setting [4]), the IC50 came to 5780 nM.
Still for that read-out and setting: to `CNCC1(c2ccc3ccccc3c2)CCC(F)CC1` (centres unmarked) [Compound 232, 1-(4-fluoro-1-(naphthalen-2-yl)cyclohexyl)-N-methylmethanamine] belongs 25 nM.
Still for that read-out and setting: to `CNCC1(c2ccc(OC(F)(F)F)cc2)CCCCC1O` (single isomer, unassigned) [146 E1, trans-2-((Methylamino)methyl)-2-(4-(trifluoromethoxy)phenyl) cyclohexanol] belongs above 10000 nM; to `NCC1(c2ccc(Cl)c(Cl)c2)CCC(F)CC1` (centres unmarked) [Compound 253, (1-(3,4-dichlorophenyl)-4-fluorocyclohexyl)methanamine], 37 nM; to `CN(C)CC1(c2ccc(Cl)c(Cl)c2)CCCC(F)(F)C1` (single isomer, unassigned) [206 E2, 1-(1-(3,4-dichlorophenyl)-3,3-difluorocyclohexyl)-N,N-dimethylmethanamine], below 1 nM.
